{"source": "patent US10722886B2", "about": "“Apparatus for separating fine particles and separating method using same” (UNIVERSITY-INDUSTRY COOPERATION GROUP OF KYUNG HEE …, priority 2014, dated 2020)", "tested_on": "Jurkat cell", "assay": "Cytotoxicity experiment (LDH analysis) on Jurkat cells exposed to Triton X-100", "assay_type": "cell-based", "conditions": "Jurkat cell exposed to Triton X-100 (0 to 0.1%) for 30 min in CO2 incubator; LDH in separated culture medium, absorbance at 490 nm", "procedure": "After the cell treated using Triton X-100 according to the Example of the present invention was separated using the apparatus for separating the microparticles, the apparatus fastened to the 1 mL syringe, and the conventional centrifuge, the cytotoxicity (%) was measured from the collected cell culture medium.\nSpecifically, a Jurkat cell was cultured in RPMI (WELGENE Inc., Korea) suspended using a 10% FBS (WELGENE) and a 1% antibiotic solution containing penicillin and streptomycin (WELGENE). In order to visualize the flow of the cell, the cell was washed with DPBS (WELGENE) and then dyed using a 10 μM CFDA cell tracer (Invitrogen) at room temperature for 15 min. After the dyeing, the cell was washed twice with DPBS.\nThe Jurkat cell was exposed to Triton X-100 at various concentrations (0 to 0.1%) in a CO2 incubator for 30 min. Subsequently, the fluid from which the microparticles were separated was obtained using the apparatus for separating the microparticles, to which the syringe was fastened, according to the present invention (manual injection at room temperature for 3 min), and the centrifuge (at 1000 rpm and room temperature for 5 min). […] The lactate dehydrogenase (LDH) analysis was performed in accordance with the manufacturer's directions (#88953, Pierce, Rockford, Ill.), and the absorbance was then measured at 490 nm. […]"}
{"substance": "Triton X-100", "values": [{"measurement": "IC50 value of Triton X-100 (cytotoxicity, LDH analysis)", "value": 0.0076, "unit": "%"}]}
